# US9169254B2, “Spiroimidazolone derivative” (Chugai Seiyaku Kabushiki Kaisha, priority 2009, dated 2015)
# Molecular target: T1, human PTH1 receptor (Homo sapiens, UniProt Q03431)
# T1 sequence (Q03431 27-593): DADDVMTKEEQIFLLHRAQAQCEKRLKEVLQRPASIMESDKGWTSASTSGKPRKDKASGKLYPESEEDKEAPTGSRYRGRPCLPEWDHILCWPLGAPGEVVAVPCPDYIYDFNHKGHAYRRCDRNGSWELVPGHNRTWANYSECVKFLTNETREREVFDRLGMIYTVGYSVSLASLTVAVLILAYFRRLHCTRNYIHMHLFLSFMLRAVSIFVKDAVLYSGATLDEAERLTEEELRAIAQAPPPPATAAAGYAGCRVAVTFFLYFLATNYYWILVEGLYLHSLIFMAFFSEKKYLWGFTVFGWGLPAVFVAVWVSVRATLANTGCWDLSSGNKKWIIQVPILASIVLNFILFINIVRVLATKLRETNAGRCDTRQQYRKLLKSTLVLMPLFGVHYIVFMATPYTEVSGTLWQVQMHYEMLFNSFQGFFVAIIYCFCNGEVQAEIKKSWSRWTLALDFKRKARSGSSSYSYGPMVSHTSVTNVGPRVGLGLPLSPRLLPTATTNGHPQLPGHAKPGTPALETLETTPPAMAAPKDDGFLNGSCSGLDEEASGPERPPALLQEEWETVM
# Assay: In vitro cAMP signal activity in HKRK-B7 cells (LLC-PK1 cells overexpressing the human PTH1 receptor)
# Type: cell-based
# Settings: HKRK-B7 cells; compound at 1×10^−3 M; cAMP produced as percentage of that produced by hPTH(1-34) at 100 nM
row,Structure (SMILES),cAMP production activity (%)
1,"CC(=O)N(CCN(C)C)c1cc(C)c(/C=C/S(=O)(=O)N2CCC3(CC2)N=C(c2cccc(OC(F)(F)F)c2)NC3=O)c(C)c1 [Compound 607, N-(2-dimethylamino-ethyl)-N-(3,5-dimethyl-4-{(E)-2-[4-oxo-2-(3-trifluoromethoxy-phenyl)-1,3,8-triaza-spiro[4.5]dec-1-ene-8-sulfonyl]-vinyl}-phenyl)-acetamide]",6.5
2,"Cc1cc(N(C)C(=O)CN(C)C)cc(C)c1/C=C/S(=O)(=O)N1CCC2(CC1)N=C(c1cccc(OC(F)(F)F)c1)NC2=O [Compound 608, 2-dimethylamino-N-(3,5-dimethyl-4-{(E)-2-[4-oxo-2-(3-trifluoromethoxy-phenyl)-1,3,8-triaza-spiro[4.5]dec-1-ene-8-sulfonyl]-vinyl}-phenyl)-N-methyl-acetamide]",20
3,"Cc1cc(N(CCN(C)C)S(C)(=O)=O)cc(C)c1/C=C/S(=O)(=O)N1CCC2(CC1)N=C(c1cccc(OC(F)(F)F)c1)NC2=O [Compound 609, N-(2-dimethylamino-ethyl)-N-(3,5-dimethyl-4-{(E)-2-[4-oxo-2-(3-trifluoromethoxy-phenyl)-1,3,8-triaza-spiro[4.5]dec-1-ene-8-sulfonyl]-vinyl}-phenyl)-methane sulfonamide]",46
4,"CC(=O)NC[C@H]1CCC(=O)N1c1cc(C)c(/C=C/S(=O)(=O)N2CCC3(CC2)N=C(c2cccc(OC(F)(F)F)c2)NC3=O)c(C)c1 [Compound 610, N—[(R)-1-(3,5-dimethyl-4-{(E)-2-[4-oxo-2-(3-trifluoromethoxy-phenyl)-1,3,8-triaza-spiro[4.5]dec-1-ene-8-sulfonyl]-vinyl}-phenyl)-5-oxo-pyrrolidin-2-ylmethyl]-acetamide]",85
5,"Cc1cc(N2C(=O)CC[C@@H]2CN(C)C)cc(C)c1/C=C/S(=O)(=O)N1CCC2(CC1)N=C(c1cccc(OC(F)(F)F)c1)NC2=O [Compound 611, 8-{(E)-2-[4-((R)-2-dimethylaminomethyl-5-oxo-pyrrolidin-1-yl)-2,6-dimethyl-phenyl]-ethenesulfonyl}-2-(3-trifluoromethoxy-phenyl)-1,3,8-triaza-spiro[4.5]dec-1-en-4-one]",82
6,"CC(=O)N(CC#N)c1ccc(/C=C/S(=O)(=O)N2CCC3(CC2)N=C(c2cccc(OC(F)(F)F)c2)NC3=O)c(C)c1 [Compound 612, N-cyanomethyl-N-(3-methyl-4-{(E)-2-[4-oxo-2-(3-trifluoromethoxy-phenyl)-1,3,8-triaza-spiro[4.5]dec-1-ene-8-sulfonyl]-vinyl}-phenyl)-acetamide]",62
7,"CC(=O)N(CC(F)(F)F)c1ccc(/C=C/S(=O)(=O)N2CCC3(CC2)N=C(c2cccc(OC(F)(F)F)c2)NC3=O)c(C)c1 [Compound 613, N-(3-methyl-4-{(E)-2-[4-oxo-2-(3-trifluoromethoxy-phenyl)-1,3,8-triaza-spiro[4.5]dec-1-ene-8-sulfonyl]-vinyl}-phenyl)-N-(2,2,2-trifluoro-ethyl)-acetamide]",44
8,"Cc1cc(N2C(=O)N(C)C(C)(C)C2=O)cc(C)c1/C=C/S(=O)(=O)N1CCC2(CC1)N=C(c1cccc(OC(F)(F)F)c1)NC2=O [Compound 614, 3-(3,5-dimethyl-4-{(E)-2-[4-oxo-2-(3-trifluoromethoxy-phenyl)-1,3,8-triaza-spiro[4.5]dec-1-ene-8-sulfonyl]-vinyl}-phenyl)-1,5,5-trimethyl-imidazolidine-2,4-dione]",25
9,"Cc1cc(N2C(=O)NC(C)(C)C2=O)cc(C)c1/C=C/S(=O)(=O)N1CCC2(CC1)N=C(c1cccc(OC(F)(F)F)c1)NC2=O [Compound 615, 3-(3,5-dimethyl-4-{(E)-2-[4-oxo-2-(3-trifluoromethoxy-phenyl)-1,3,8-triaza-spiro[4.5]dec-1-ene-8-sulfonyl]-vinyl}-phenyl)-5,5-dimethyl-imidazolidine-2,4-dione]",46
10,"CC(=O)N(c1cc(C)c(/C=C/S(=O)(=O)N2CCC3(CC2)N=C(c2cccc(OC(F)(F)F)c2)NC3=O)c(C)c1)C1CCOCC1 [Compound 616, N-(3,5-dimethyl-4-{(E)-2-[4-oxo-2-(3-trifluoromethoxy-phenyl)-1,3,8-triaza-spiro[4.5]dec-1-ene-8-sulfonyl]-vinyl}-phenyl)-N-(tetrahydro-pyran-4-yl)-acetamide]",94
11,"Cc1cc(N2CCOCC2=O)ccc1/C=C/S(=O)(=O)N1CCC2(CC1)N=C(c1cccc(OC(F)(F)F)c1)NC2=O [Compound 617, 8-{(E)-2-[2-methyl-4-(3-oxo-morpholin-4-yl)-phenyl]-ethenesulfonyl}-2-(3-trifluoromethoxy-phenyl)-1,3,8-triaza-spiro[4.5]dec-1-en-4-one]",96
12,"Cc1cc(N2C(=O)CNC2=O)ccc1/C=C/S(=O)(=O)N1CCC2(CC1)N=C(c1cccc(OC(F)(F)F)c1)NC2=O [Compound 618, 3-(3-methyl-4-{(E)-2-[4-oxo-2-(3-trifluoromethoxy-phenyl)-1,3,8-triaza-spiro[4.5]dec-1-ene-8-sulfonyl]-vinyl}-phenyl)-imidazolidine-2,4-dione]",121
13,"Cc1cc(C(=O)N2CCCC2)ccc1/C=C/S(=O)(=O)N1CCC2(CC1)N=C(c1ccc(F)c(C(F)(F)F)c1)NC2=O [Compound 619, 2-(4-Fluoro-3-trifluoromethyl-phenyl)-8-{(E)-2-[2-methyl-4-(pyrrolidine-1-carbonyl)-phenyl]-ethenesulfonyl}-1,3,8-triaza-spiro[4.5]dec-1-en-4-one]",61
14,"Cc1cc(N2C(=O)CC[C@@H]2CO)ccc1/C=C/S(=O)(=O)N1CCC2(CC1)N=C(c1ccc(F)c(C(F)(F)F)c1)NC2=O [Compound 620, 2-(4-fluoro-3-trifluoromethyl-phenyl)-8-{(E)-2-[4-((R)-2-hydroxymethyl-5-oxo-pyrrolidin-1-yl)-2-methyl-phenyl]-ethenesulfonyl}-1,3,8-triaza-spiro[4.5]dec-1-en-4-one]",112
15,"Cc1cc(N2C(=O)CC[C@H]2CO)ccc1/C=C/S(=O)(=O)N1CCC2(CC1)N=C(c1ccc(F)c(C(F)(F)F)c1)NC2=O [Compound 621, 2-(4-fluoro-3-trifluoromethyl-phenyl)-8-{(E)-2-[4-((S)-2-hydroxymethyl-5-oxo-pyrrolidin-1-yl)-2-methyl-phenyl]-ethenesulfonyl}-1,3,8-triaza-spiro[4.5]dec-1-en-4-one]",80
16,"O=C1NC(CCCCCCCCC(F)(F)F)=NC12CCN(S(=O)(=O)/C=C/c1cccc3c1ccn3C[C@H](O)CO)CC2 [Compound 622, 8-{(E)-2-[1-((S)-2,3-Dihydroxy-propyl)-1H-indol-4-yl]-ethenesulfonyl}-2-(9,9,9-trifluoro-nonyl)-1,3,8-triaza-spiro[4.5]dec-1-en-4-one]",134
17,"O=C1NC(CCCCCCCC(F)(F)C(F)(F)F)=NC12CCN(S(=O)(=O)/C=C/c1cccc3c1ccn3C[C@H](O)CO)CC2 [Compound 623, 8-{(E)-2-[1-((S)-2,3-Dihydroxy-propyl)-1H-indol-4-yl]-ethenesulfonyl}-2-(8,8,9,9,9-pentafluoro-nonyl)-1,3,8-triaza-spiro[4.5]dec-1-en-4-one]",123
18,"CC[C@H]1CC[C@H](C2=NC3(CCN(S(=O)(=O)/C=C/c4ccc(N5CC(=O)NC5=O)cc4C)CC3)C(=O)N2)CC1 [Compound 624, 1-(4-{(E)-2-[2-(4-Ethyl-cyclohexyl)-4-oxo-1,3,8-triaza-spiro[4.5]dec-1-ene-8-sulfonyl]-vinyl}-3-methyl-phenyl)-imidazolidine-2,4-dione]",36
19,"CC[C@H]1CC[C@H](C2=NC3(CCN(S(=O)(=O)/C=C/c4ccc(N5C(=O)NC(=O)C5C)cc4C)CC3)C(=O)N2)CC1 (stereo partly shown) [Compound 625, 1-(4-{(E)-2-[2-(4-ethyl-cyclohexyl)-4-oxo-1,3,8-triaza-spiro[4.5]dec-1-ene-8-sulfonyl]-vinyl}-3-methyl-phenyl)-5-methyl-imidazolidine-2,4-dione]",47
20,"CC[C@H]1CC[C@H](C2=NC3(CCN(S(=O)(=O)/C=C/c4ccc(N5C(=O)NC(=O)C5(C)C)cc4C)CC3)C(=O)N2)CC1 [Compound 626, 1-(4-{(E)-2-[2-(4-ethyl-cyclohexyl)-4-oxo-1,3,8-triaza-spiro[4.5]dec-1-ene-8-sulfonyl]-vinyl}-3-methyl-phenyl)-5,5-dimethyl-imidazolidine-2,4-dione]",53
21,"CCCCCCCCCC1=NC2(CCN(S(=O)(=O)/C=C/c3c(C)cc(OCCC(O)CO)cc3C)CC2)C(=O)N1 (stereo not shown) [Compound 627, 8-{(E)-2-[4-(3,4-Dihydroxy-butoxy)-2,6-dimethyl-phenyl]-ethenesulfonyl}-2-nonyl-1,3,8-triaza-spiro[4.5]dec-1-en-4-one]",5.3
22,"CCCCCCCCCC1=NC2(CCN(S(=O)(=O)/C=C/c3c(C)cc(C(=O)O)cc3C)CC2)C(=O)N1 [Compound 628, 3,5-dimethyl-4-[(E)-2-(2-nonyl-4-oxo-1,3,8-triaza-spiro[4.5]dec-1-ene-8-sulfonyl)-vinyl]-benzoic acid]",48
